{"source": "patent US4874698A", "about": "“Process for producing tryptophan” (Kyowa Hakko Kogyo Co., Ltd., priority 1983, dated 1989)", "key": {"[1]": {"molecular_target": "anthranilic acid synthetase encoded by pTrp 13-2 (Corynebacterium glutamicum, UniProt P06557)", "sequence (P06557 whole entry)": "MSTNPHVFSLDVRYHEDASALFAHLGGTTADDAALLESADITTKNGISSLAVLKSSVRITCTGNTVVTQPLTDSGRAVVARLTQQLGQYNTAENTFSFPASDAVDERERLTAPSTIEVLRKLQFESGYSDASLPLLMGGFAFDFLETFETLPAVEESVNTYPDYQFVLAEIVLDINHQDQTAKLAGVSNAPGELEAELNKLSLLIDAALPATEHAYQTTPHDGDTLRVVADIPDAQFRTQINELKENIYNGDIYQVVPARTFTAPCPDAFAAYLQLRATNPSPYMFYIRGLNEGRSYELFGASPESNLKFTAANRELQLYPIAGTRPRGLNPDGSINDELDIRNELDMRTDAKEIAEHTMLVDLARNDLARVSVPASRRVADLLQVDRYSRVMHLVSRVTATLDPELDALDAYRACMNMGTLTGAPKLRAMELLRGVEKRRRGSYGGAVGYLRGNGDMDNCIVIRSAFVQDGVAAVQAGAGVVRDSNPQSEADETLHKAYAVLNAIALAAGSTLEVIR", "sequence (P06558 whole entry, further chain)": "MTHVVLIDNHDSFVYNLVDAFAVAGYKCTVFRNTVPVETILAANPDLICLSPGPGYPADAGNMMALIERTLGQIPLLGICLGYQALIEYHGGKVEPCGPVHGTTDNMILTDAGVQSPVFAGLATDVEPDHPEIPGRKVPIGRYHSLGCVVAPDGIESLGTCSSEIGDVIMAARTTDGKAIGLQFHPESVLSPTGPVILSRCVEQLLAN", "assay": "Inhibition by tryptophan of the anthranilic acid synthetase encoded by plasmid pTrp 13-2", "format": "biochemical", "experimental": "(§1) The thus obtained transformants have the plasmid harboring a gene coding for the anthranilic acid synthetase insensitie to tryptophan. The anthranilic acid synthetase encoded by one of the plasmids, pTrp 13-2 was inhibited 50% with 0.25 mM tryptophan, which was 40-fold higher than the concentration of tryptophan (0.006 mM) needed to inhibit 50% the anthranilic acid synthetase encoded by pTrp 9-1."}, "[2]": {"molecular_target": "T1, anthranilic acid synthetase encoded by pTrp 9-1 (Corynebacterium glutamicum, UniProt P06557)", "T1 construct": "made in house; host or cells: Corynebacterium glutamicum LA 105", "T1 sequence (P06557 whole entry)": "as the sequence (P06557 whole entry) above", "T1 sequence (P06558 whole entry, further chain)": "as the sequence (P06558 whole entry, further chain) above", "assay": "Inhibition by tryptophan of the anthranilic acid synthetase encoded by plasmid pTrp 9-1", "format": "biochemical, Corynebacterium glutamicum ATCC 13032", "experimental": "as §1"}}}
{"smiles": "N[C@@H](Cc1c[nH]c2ccccc12)C(=O)O", "note": "[tryptophan]", "values": [{"measurement": "fold higher 50% inhibitory tryptophan concentration, pTrp 13-2 enzyme versus pTrp 9-1 enzyme", "setting": "[1]; 0.25 mM versus 0.006 mM", "result": 40, "unit": "fold"}, {"measurement": "IC50", "setting": "[1]; read-out: concentration of tryptophan inhibiting the anthranilic acid synthetase 50%, enzyme encoded by tryptophan-analog resistant plasmid pTrp 13-2", "result": 250, "unit": "µM"}, {"measurement": "IC50", "setting": "[2]", "result": 6, "unit": "µM"}]}
